# Assay results reported in US11214803B2, “Modulators of YAP1 expression” (Ionis Pharmaceuticals, Inc., priority 2019, dated 2022).
# Strand notation (5' to 3'): a small letter for the sugar, then the base; units joined by * are phosphorothioate-linked, units joined directly phosphodiester-linked; [ ] holds rarer units or linkages, { } end groups; capitals alone tell only the bases. k = constrained ethyl (cEt); [5mC] = 5-methylcytosine; d = 2'-deoxy (DNA)
# System: Yap1 mRNA
# Assay: Dose-dependent inhibition of human Yap1 in A-431 cells (Example 7, 10,000 cells per well, RTS36584)
# Assay type: cell-based
# Conditions: free uptake
# Summary of the method: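 Yap1 mRNA was expressed as percent of untreated control after normalization to total RNA (RIBOGREEN), and IC50 was derived by log/linear linear regression. The read-out used primer-probe set RTS36584 roughly 48 hours after free-uptake dosing of oligonucleotides into A-431 cells (10,000 cells/well).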
# [1] = Table 58, 15.6 nM, A-431 cells 10,000 cells per well, 48 hours
# [2] = Table 58, 62.5 nM, A-431 cells 10,000 cells per well, 48 hours
# [3] = Table 58, 4000.00 nM, A-431 cells 10,000 cells per well, 48 hours
# [4] = Table 58, A-431 cells 10,000 cells per well
# [5] = Table 57, 15.6 nM, A-431 cells 10,000 cells per well, 48 hours
# [6] = Table 57, 62.5 nM, A-431 cells 10,000 cells per well, 48 hours
# [7] = Table 57, 4000.00 nM, A-431 cells 10,000 cells per well, 48 hours
# [8] = Table 57, A-431 cells 10,000 cells per well
# [9] = Table 60, 15.6 nM, A-431 cells 10,000 cells per well, 48 hours
# [10] = Table 60, 62.5 nM, A-431 cells 10,000 cells per well, 48 hours
# [11] = Table 60, 4000.00 nM, A-431 cells 10,000 cells per well, 48 hours
# [12] = Table 60, A-431 cells 10,000 cells per well
# [13] = Table 61, 15.6 nM, A-431 cells 10,000 cells per well, 48 hours
# [14] = Table 61, 62.5 nM, A-431 cells 10,000 cells per well, 48 hours
# [15] = Table 61, 4000.00 nM, A-431 cells 10,000 cells per well, 48 hours
# [16] = Table 61, A-431 cells 10,000 cells per well
substance,measurement,setting,value
958527 (kG*kT*kA*dA*dG*dT*dA*dA*dG*dA*dA*d[5mC]*dA*kA*kT*k[5mC]; antisense) [compound 958527],"Yap1 mRNA, % UTC",[1],89 % UTC
same,"Yap1 mRNA, % UTC",[2],74 % UTC
same,"Yap1 mRNA, % UTC",[3],13 % UTC
same,IC50,[4],100 nM
958506 (kG*k[5mC]*kA*dG*dA*dT*dA*dA*dT*d[5mC]*dG*dA*dG*kA*kT*kT; antisense) [compound 958506],"Yap1 mRNA, % UTC",[5],80 % UTC
same,"Yap1 mRNA, % UTC",[6],55 % UTC
same,"Yap1 mRNA, % UTC",[7],10 % UTC
same,IC50,[8],100 nM
958481 (kG*k[5mC]*kA*dA*d[5mC]*dT*dG*dG*d[5mC]*dT*dT*dA*dT*kG*kG*kA; antisense) [compound 958481],"Yap1 mRNA, % UTC",[5],86 % UTC
same,"Yap1 mRNA, % UTC",[6],62 % UTC
same,"Yap1 mRNA, % UTC",[7],14 % UTC
same,IC50,[8],100 nM
958562 (k[5mC]*kA*kT*dT*dG*dA*dA*dA*dG*dA*d[5mC]*d[5mC]*d[5mC]*kT*kT*kA; antisense) [compound 958562],"Yap1 mRNA, % UTC","Table 59, 15.6 nM, A-431 cells 10,000 cells per well, 48 hours",105 % UTC
same,"Yap1 mRNA, % UTC","Table 59, 62.5 nM, A-431 cells 10,000 cells per well, 48 hours",95 % UTC
same,"Yap1 mRNA, % UTC","Table 59, 4000.00 nM, A-431 cells 10,000 cells per well, 48 hours",28 % UTC
same,IC50,"Table 59, A-431 cells 10,000 cells per well",400 nM
958508 (kG*kA*kG*dA*dG*d[5mC]*dA*dG*dA*dT*dA*dA*dT*k[5mC]*kG*kA; antisense) [compound 958508],"Yap1 mRNA, % UTC",[9],65 % UTC
same,"Yap1 mRNA, % UTC",[10],64 % UTC
same,"Yap1 mRNA, % UTC",[11],13 % UTC
same,IC50,[12],100 nM
958730 (k[5mC]*kT*k[5mC]*dT*dG*dT*d[5mC]*dA*dG*dT*dT*dA*dT*k[5mC]*k[5mC]*kT; antisense) [compound 958730],"Yap1 mRNA, % UTC","15.6 nM, A-431 cells, 10,000 cells per well, approximately 48 hours",88 % UTC
same,"Yap1 mRNA, % UTC","62.5 nM, A-431 cells, 10,000 cells per well, approximately 48 hours",48 % UTC
same,"Yap1 mRNA, % UTC","4000.00 nM, A-431 cells, 10,000 cells per well, approximately 48 hours",7 % UTC
same,IC50,"A-431 cells, approximately 48 hours, linear regression on log/linear plot",100 nM
958599 (kT*kT*k[5mC]*dA*dA*dG*dA*dA*dT*dA*d[5mC]*d[5mC]*d[5mC]*kA*kG*kT; antisense) [compound 958599],"Yap1 mRNA, % UTC",[13],100 % UTC
same,"Yap1 mRNA, % UTC",[14],74 % UTC
same,"Yap1 mRNA, % UTC",[15],16 % UTC
same,IC50,[16],200 nM
958588 (kG*kT*kG*dT*dA*d[5mC]*dT*dT*dA*dG*dG*dT*dG*kA*k[5mC]*kT; antisense) [compound 958588],"Yap1 mRNA, % UTC",[9],93 % UTC
same,"Yap1 mRNA, % UTC",[10],73 % UTC
same,"Yap1 mRNA, % UTC",[11],27 % UTC
same,IC50,[12],200 nM
958546 (k[5mC]*kA*kT*dA*d[5mC]*dT*d[5mC]*dT*dA*dG*dT*dT*dA*k[5mC]*kA*kT; antisense) [compound 958546],"Yap1 mRNA, % UTC",[5],91 % UTC
same,"Yap1 mRNA, % UTC",[6],72 % UTC
same,"Yap1 mRNA, % UTC",[7],22 % UTC
same,IC50,[8],200 nM
958793 (k[5mC]*k[5mC]*kG*d[5mC]*dA*dT*dT*dG*d[5mC]*d[5mC]*dT*dA*dA*kG*kA*kG; antisense) [compound 958793],"Yap1 mRNA, % UTC",[9],88 % UTC
same,"Yap1 mRNA, % UTC",[10],61 % UTC
same,"Yap1 mRNA, % UTC",[11],25 % UTC
same,IC50,[12],200 nM
958579 (kA*kT*k[5mC]*dT*dT*dA*dA*dT*d[5mC]*dT*dG*dT*dG*kG*k[5mC]*kT; antisense) [compound 958579],"Yap1 mRNA, % UTC",[13],85 % UTC
same,"Yap1 mRNA, % UTC",[14],52 % UTC
same,"Yap1 mRNA, % UTC",[15],12 % UTC
same,IC50,[16],100 nM
958556 (k[5mC]*kA*kA*d[5mC]*d[5mC]*dA*dA*d[5mC]*dT*dA*dT*dT*dA*k[5mC]*kT*kT; antisense) [compound 958556],"Yap1 mRNA, % UTC",[5],103 % UTC
same,"Yap1 mRNA, % UTC",[6],95 % UTC
same,"Yap1 mRNA, % UTC",[7],34 % UTC
same,IC50,[8],500 nM
958742 (kA*kG*k[5mC]*dA*dA*dT*dA*dT*dG*dG*dT*dA*dT*kT*kA*kG; antisense) [compound 958742],"Yap1 mRNA, % UTC",[1],105 % UTC
same,"Yap1 mRNA, % UTC",[2],70 % UTC
same,"Yap1 mRNA, % UTC",[3],20 % UTC
same,IC50,[4],200 nM
958526 (kA*kG*kT*dA*dA*dG*dA*dA*d[5mC]*dA*dA*dT*d[5mC]*kT*kT*kG; antisense) [compound 958526],"Yap1 mRNA, % UTC",[5],118 % UTC
same,"Yap1 mRNA, % UTC",[6],83 % UTC
same,"Yap1 mRNA, % UTC",[7],17 % UTC
same,IC50,[8],200 nM
